Test results: patent publication US6548531B2, “Method for cancer therapy” (priority 2001, dated 2003)

Experiments:
[1] = test system: MDA-MB-435 breast adenocarcinoma xenograft; experiment: In vivo antitumor activity, established mammary fat pad xenograft; conditions: low doses as single agents, 3 weeks i.p.
[2] = Toxicity (body weight, deaths) in tumor-bearing mice; conditions: 3 weeks
Experimental: Drug Preparation and Treatment: Suspensions of Compound II were prepared by combining the drug and Pluronic F68 block copolymer at 1:9 or 1:18 ratios of drug to polymer, to prepare suspensions in the concentration range 0-10 mg/ml and 20 mg/ml respectively. […] The final ratio of liquid components (EtOH, Cremophor, and saline) were 5:5:90, respectively. The experiment consisted of 16 groups which contained a vehicle group, 3 groups given Paclitaxel at 7.5, 15 and 30 mg/kg as a single agent, 3 groups given Compound II at 12.5, 25 and 50 mg/kg as a single agent and […] combination groups of all doses of Paclitaxel and Compound II.
All mice were observed and weighed as groups, 7 times per week for three weeks. The average weight of individual mice was calculated by dividing the group weight by the number of animals per group. Percent body weight change was calculated using the formula:
(Current Average Weight−Initial Average Weight/Initial Average Weight) ×100.

Row | Structure (SMILES) | antitumor efficacy [1] | Deaths/Total ([2]; Paclitaxel 7.5 mg/kg i.p. q.d. 5x/week) | Deaths/Total ([2]; Paclitaxel 15 mg/kg i.p. q.d. 5x/week) | Deaths/Total ([2]; Paclitaxel 30 mg/kg i.p. q.d. 3x/week)
1 | Cn1cc(C2=C(c3cn(C)c4cc([N+](=O)[O-])ccc34)C(=O)NC2=O)c2ccccc21 [Compound II] | only minimally effective | – | – | –
2 | CC(=O)O[C@H]1C(=O)[C@@]2(C)[C@H]([C@H](OC(=O)c3ccccc3)[C@]3(O)C[C@H](OC(=O)[C@H](O)[C@@H](NC(=O)c4ccccc4)c4ccccc4)C(C)=C1C3(C)C)[C@]1(OC(C)=O)CO[C@@H]1C[C@@H]2O [Paclitaxel, paclitaxel] | only minimally effective | 2/10 | 0/10 | 0/10
